Measurements reported in patent US20260083698A1, “Synergistic Stimulation of Mucociliary Clearance to Treat Mucus Obstruction in Cystic Fibrosis and Other Muco-Obstructive Disorders” (The Board of Trustees of the Leland Stanford Junior …, priority 2022, published 2026).

What was measured:
human nasal mucosa = experiment: Ciliary beat frequency (CBF) measurement; conditions: 37° C.; for CBF: human nasal mucosa, KRB, 0.3 μM carbachol, 10 μM forskolin
Description: Ciliary beat frequency was measured in human nasal mucosa from 4 subjects. CBF (in Hz) of unstimulated tissues at 37° C. in Krebs buffer (KRB) was 10.46±0.95. […] (Note that in this experiment any effects on ASL by the agonists were diluted because the ciliated tissue was studied while submerged in Krebs solution.) […] It was tested to see if CBF might display synergistic increases to the combined agonists. CBF (in Hz) of unstimulated human nasal cells in KRB (Krebs buffer solution) was 6.79±1.69 at 25° C. and 10.46±0.95 at 37° C. (4 subjects, P=0.01) (see “Methods” section). […] Thus, while increases in CBF will contribute to increases in MCCV, they are unlikely to account for the synergistic increase in MCCV seen with the combined agonists (see “Discussion” section). Human tissues. Human nasal mucosal tissues were obtained from nasal biopsies during endoscopic sinus surgeries at Yonsei University Hospital. All methods using human tissues were carried out in accordance with relevant guidelines and regulations of Yonsei University, Seoul, South Korea. All experimental protocols were approved by Yonsei University and informed consent was obtained from all participants prior to the study (Yonsei University-IRB protocol#: 4-2016-1153). Ciliary beat frequency measurement. Ciliary beat frequency was measured using human nasal mucosa in the lab where ferret and pig tracheal mucosa was not readily accessible. Human nasal mucosa from endoscopic nasal biopsies was further dissected under a microscope and placed in a chamber controlled for temperature and pH control. Perfused Krebs bicarbonate buffer was maintained at 37° C. and pH 7.4. Cilia were visualized with a Zeiss microscope equipped with 40× or 60× objectives (Munich, Germany) using differential interference contrast (DIC) optics. […] Images were obtained for 10 s at each condition and experiments were performed in the following sequence: (1) unstimulated CBF at room temperature; (2) unstimulated at 37° C.; (3) CBF at 37° C. with 0.3 μM carbachol; (4) wash for 10 min; […] Each condition was maintained for at least 10 min. […] All recordings at each condition were made at three different areas of the epithelia, and the analyzed CBF was averaged for each experiment. To analyze captured images and calculate CBF, an in-house coding with a MATLAB software (MA, USA) was used.

WT piglet tracheas = experiment: Mucociliary clearance velocity (MCCV) in ex vivo WT piglet tracheas; design: species or system pig; conditions: for Averaged MCCV: 10 μM forskolin, 0.3 μM carbachol, last 20 min of single agonist period, last 50 min of synergy period
Description: MCCV in tracheas was measured from 2 to 5 days old WT piglets (see “Methods” section for details). […] The 8 piglet tracheas were divided into two groups and tested 4 by applying forskolin first and 4 by applying carbachol first, followed by the combined agonists.
These experiments used forskolin to elevate cAMP.
Pig tissues. Newborn WT piglet tracheas (2-5 days old) were directly obtained at the swine facility of UC Davis or from the laboratory of David Stoltz, University of Iowa, via overnight priority express. Postmortem (<1 h) tracheas from young adult Yorkshire pigs (30-50 kg) and 5-12 months old M. putorius ferrets were from animal facilities at Stanford and Gilroy/CA. All methods using animal tracheae were carried out in accordance with relevant guidelines and regulations of Stanford University and animal protocols were approved (Stanford IACUC protocol#: 10,048). Piglet tracheas were shipped in DMEM cell culture medium, other animal tissues were transported to the laboratory in cold PhysioSol™ solution (Hospira, IL/USA) and then transferred to icecold Krebs Ringer bicarbonate (KRB) buffer gassed with 95% O2 and 5% CO2 and kept at 4° C. until use. The KRB buffer contained (in mM): 115 NaCl, 25 NaHCO3, 2.4 K2HPO4, 0.4 KH2PO4, 1.2 MgCl2, 1.2 CaCl2, 10 glucose, and 1.0 μM indomethacin, adjusted to pH 7.2 and ˜290 mOsm at room temperature.
MCCV measurement. Details are in the previous reports (16,59,60). Briefly, each whole length ferret or piglet trachea, or a CF tracheal trim, was cut open along the mid-dorsal line and mounted mucosal side up onto a Sylgard elastomer platform. […] The prepared trachea was placed into a sealed, humidified chamber bubbled continuously with gas (95%/5%-O2/CO2) with the serosal surface bathed with KRB buffer±drugs. […] Then excess apical solution was drained, and tissue was incubated for an additional 10 min before starting baseline measurements of MCCV. Drugs were added by bath replacement with pre-warmed bath+drug(s). Summary MCCV data are reported as a single number and based on the averaged MCCV during the last 20 min of the treatment period unless stated otherwise.
MCCV (all values are in mm/min) was then measured for 90-120 min and plotted as MCCV vs time and agonist(s) in FIG. 8.
It was hypothesized that the synergistic MCC induced by β-adrenergic and cholinergic agonists involved ENaC inhibition.

[1] = system: piglet or ferret tracheal rings; experiment: Airway narrowing: lumen area of thin sliced tracheal rings, carbachol; design: species or system pig; ferret; conditions: 0.3 mM carbachol alone
Description: FIG. 2. Elevating cAMP by adenylate cyclase activation inhibited muscle tension and airway narrowing to carbachol. (A, B) To measure muscle tension, one end of an isolated WT ferret trachealis muscle bundle was secured in a Sylgard-lined Petri dish filled with KRB solution and the other end was attached by 26-gauge wire to a previously calibrated strain gauge. […] (red closed circles). Averaged responses at 10 min intervals are shown for: (C) WT piglet tracheas (n=3-7) with forskolin. […] (F). CF ferrets (n=2, one CFTRΔF/ΔF and one CFTRΔF/G551D). […] Used alone they have opposite effects: Ca^2+-elevating agonists contract muscles whereas cAMP-elevating agonists relax them. For therapeutic use, the potential for producing unwanted bronchoconstriction with the combined agonists is a safety concern. […] Tension of ferret trachealis muscle bundles was measured to increasing carbachol concentrations±[…] forskolin. […] Importantly, the protective effect was also observed in CF ferrets (FIG. 2F). Airway smooth muscle contraction measurement. Two methods were used to measure tracheal smooth muscle contraction. One is designed to measure airway narrowing using thin sliced tracheal rings. Piglet or ferret tracheal ring preparations of ˜2 mm were submerged and securely pinned on a Sylgard-lined Petri dish filled with KRB solution at 37° C. and pH 7.4. […] The other method is using a force transducer. […]

SMILES | increase in CBF vs unstimulated (human nasal mucosa) | CBF (human nasal mucosa) | Averaged MCCV (WT piglet tracheas; WT piglet tracheas) | sustained reduction of lumen area [1] | effect on MCCV (WT piglet tracheas; WT piglet tracheas, carbachol or forskolin alone) | MCCV (WT piglet tracheas; pig tracheas, 10 μM formoterol in place of forskolin, carbachol)
C=C[C@@]1(C)CC(=O)[C@]2(O)[C@@]3(C)[C@@H](O)CCC(C)(C)[C@@H]3[C@H](O)[C@H](OC(C)=O)[C@@]2(C)O1 [forskolin] | 9.8% | 12.06±1.22 Hz | 2.46±0.68 mm/min |  |  | 
C[N+](C)(C)CCOC(N)=O [carbachol] | 5.3% | 11.04±1.3 Hz | 1.12±0.82 mm/min | 20-40% | only small increases | 1.3±0.8 mm/min
